The CombiSolv-Exp solvation set (Vermeire and Green 2021)

Experiment: solvent given as SMILES
[1] = in CCCCCCCCC=CCCCCCCCC(=O)OCC(COC(=O)CCCCCCCC=CCCCCCCCC)OC(=O)CCCCCCCC=CCCCCCCCC
[2] = in CC(C)CCCC(C)CCCC(C)CCCCC(C)CCCC(C)CCCC(C)C

## O=C(O)c1ccc(CCl)cc1
In C=CCCCCCCCCCCCCCC
  solvation free energy, 298 K: -8.7 kcal/mol
In O
  solvation free energy, 298 K: -9.22 kcal/mol

## CCCCCCCO
In CC(C)CC(C)(C)C
  solvation free energy, 298 K: -5.82 kcal/mol
In CCCCCC
  solvation free energy, 298 K: -5.59 kcal/mol
In CCCCCCC
  solvation free energy, 298 K: -5.59 kcal/mol
In CCCCCCCCCCCCCCCC
  solvation free energy, 298 K: -5.43 kcal/mol
In CCCCCCO
  solvation free energy, 298 K: -8.08 kcal/mol
In CO
  solvation free energy, 298 K: -7.6 kcal/mol
In NC=O
  solvation free energy, 298 K: -6.38 kcal/mol
In O
  solvation free energy, 298 K: -4.24 kcal/mol

## CCCCNCc1ccc(C)cc1
In O
  solvation free energy, 298 K: -5.47 kcal/mol

## CNCCc1ccc(O)cc1
In C=CCCCCCCC=C
  solvation free energy, 298 K: -9.48 kcal/mol
In O
  solvation free energy, 298 K: -11.9 kcal/mol

## CCCCCCCCCCCC(=O)OC
In O
  solvation free energy, 298 K: -2.91 kcal/mol

## CCCOC(=O)c1ccccc1C(=O)OCCC
In O
  solvation free energy, 298 K: -7.56 kcal/mol

## O=Cc1ccccc1O
In O
  solvation free energy, 298 K: -4.71 kcal/mol

## Cc1cccs1
In O
  solvation free energy, 298 K: -1.38 kcal/mol

## CCCCOC(=O)c1ccccc1C(=O)OC(CC)CCCC (configuration not stated)
In O
  solvation free energy, 298 K: -6.71 kcal/mol

## CCCCCCC(C)=O
In C1COCCO1
  solvation free energy, 298 K: -6.83 kcal/mol
In CCCCCCC
  solvation free energy, 298 K: -5.68 kcal/mol
In CN(C)C=O
  solvation free energy, 298 K: -6.23 kcal/mol
In ClC(Cl)(Cl)Cl
  solvation free energy, 298 K: -6.7 kcal/mol
In NC=O
  solvation free energy, 298 K: -5.06 kcal/mol
In O
  solvation free energy, 298 K: -2.92 kcal/mol

## CCCCCCCCCCCCCCCCCCO
In CC(C)O
  solvation free energy, 298 K: -14.9 kcal/mol
In CCC(C)=O
  solvation free energy, 298 K: -13.8 kcal/mol
[1]
  solvation free energy, 298 K: -12.4 kcal/mol
In CCCCCCCCCCO
  solvation free energy, 298 K: -14.9 kcal/mol
In CCCCCCCCO
  solvation free energy, 298 K: -14.9 kcal/mol
In CCCCCCO
  solvation free energy, 298 K: -14.9 kcal/mol
In CCCCOCCCC
  solvation free energy, 298 K: -14.5 kcal/mol
In CCOCC
  solvation free energy, 298 K: -15 kcal/mol
In O
  solvation free energy, 298 K: -2.43 kcal/mol

## Oc1ccc(I)cc1
In O
  solvation free energy, 298 K: -7.61 kcal/mol

## CC=O
In CC(=O)N(C)C
  solvation free energy, 298 K: -3.22 kcal/mol
[2]
  solvation free energy, 298 K: -2.26 kcal/mol
In CCCCCCCCCCCCCCCC
  solvation free energy, 298 K: -1.51 kcal/mol
In CCCCCCCCO
  solvation free energy, 298 K: -3.65 kcal/mol
In CCCCN(C=O)CCCC
  solvation free energy, 298 K: -2.78 kcal/mol
In CCN1CCCC1=O
  solvation free energy, 298 K: -3.05 kcal/mol
In CCN(CC)C(C)=O
  solvation free energy, 298 K: -3.06 kcal/mol
In CCNC(C)=O
  solvation free energy, 298 K: -2.73 kcal/mol
In CN1CCCCC1=O
  solvation free energy, 298 K: -3.04 kcal/mol
In CNC(C)=O
  solvation free energy, 298 K: -2.85 kcal/mol
In CO
  solvation free energy, 298 K: -4.83 kcal/mol
In O
  solvation free energy, 298 K: -3.44 kcal/mol

## O=C(O)c1ccc(C(=O)O)cc1
In CN1CCCC1=O
  solvation free energy, 298 K: -16.2 kcal/mol
In O
  solvation free energy, 298 K: -11.4 kcal/mol

## COc1cc(C=O)ccc1O
In O
  solvation free energy, 298 K: -8.76 kcal/mol

## c1ccc2c(c1)Cc1ccccc1O2
In C1CCOC1
  solvation free energy, 298 K: -10.9 kcal/mol
In C1COCCO1
  solvation free energy, 298 K: -10.8 kcal/mol
In CC(C)(C)O
  solvation free energy, 298 K: -9.25 kcal/mol
In CC(C)CC(C)(C)C
  solvation free energy, 298 K: -9.39 kcal/mol
In CC(C)CC(C)O
  solvation free energy, 298 K: -9.34 kcal/mol
In CC(C)CCO
  solvation free energy, 298 K: -9.39 kcal/mol
In CC(C)CO
  solvation free energy, 298 K: -9.24 kcal/mol
In CC(C)O
  solvation free energy, 298 K: -9.22 kcal/mol
In CC(C)OC(C)C
  solvation free energy, 298 K: -9.95 kcal/mol
In CCC(C)(C)O
  solvation free energy, 298 K: -9.49 kcal/mol
In CCC(C)O
  solvation free energy, 298 K: -9.33 kcal/mol
In CCCC(C)CO
  solvation free energy, 298 K: -9.42 kcal/mol
In CCCC(C)O
  solvation free energy, 298 K: -9.43 kcal/mol
In CCCCCC
  solvation free energy, 298 K: -9.63 kcal/mol
In CCCCCCC
  solvation free energy, 298 K: -9.67 kcal/mol
In CCCCCCCC
  solvation free energy, 298 K: -9.68 kcal/mol
In CCCCCCCCCC
  solvation free energy, 298 K: -9.67 kcal/mol
In CCCCCCCCCCO
  solvation free energy, 298 K: -9.67 kcal/mol
In CCCCCCCCO
  solvation free energy, 298 K: -9.67 kcal/mol
In CCCCCCCO
  solvation free energy, 298 K: -9.66 kcal/mol
In CCCCCCO
  solvation free energy, 298 K: -9.63 kcal/mol
In CCCCCO
  solvation free energy, 298 K: -9.57 kcal/mol
In CCCCO
  solvation free energy, 298 K: -9.53 kcal/mol
In CCCCOCCCC
  solvation free energy, 298 K: -10.1 kcal/mol
In CCCO
  solvation free energy, 298 K: -9.41 kcal/mol
In CCO
  solvation free energy, 298 K: -9.19 kcal/mol
In CCOCC
  solvation free energy, 298 K: -10.5 kcal/mol
In CO
  solvation free energy, 298 K: -9.2 kcal/mol
In COC(C)(C)C
  solvation free energy, 298 K: -10.3 kcal/mol
In ClC(Cl)(Cl)Cl
  solvation free energy, 298 K: -10.8 kcal/mol
In ClCCCl
  solvation free energy, 298 K: -10.8 kcal/mol

## c1ccc2c(c1)Cc1ccccc1C2
In O
  solvation free energy, 298 K: -3.78 kcal/mol

## CCOC
In O
  solvation free energy, 298 K: -2.1 kcal/mol

## CCCCCC(C)=O
[2]
  solvation free energy, 298 K: -4.99 kcal/mol
In CCCCCC
  solvation free energy, 298 K: -5.36 kcal/mol
In CCCCCCC
  solvation free energy, 298 K: -5.22 kcal/mol
In CCCCCCCC
  solvation free energy, 298 K: -5.25 kcal/mol
In CCCCCCCCCC
  solvation free energy, 298 K: -5.18 kcal/mol
In CCCCCCCCCCCCCCCC
  solvation free energy, 298 K: -5.06 kcal/mol
In CCCCCCCCO
  solvation free energy, 298 K: -5.65 kcal/mol
In CCCCOCCCC
  solvation free energy, 298 K: -5.73 kcal/mol
In CO
  solvation free energy, 298 K: -5.98 kcal/mol
In NC=O
  solvation free energy, 298 K: -4.75 kcal/mol
In O
  solvation free energy, 298 K: -3.09 kcal/mol
In [2H]O[2H]
  solvation free energy, 298 K: -3.07 kcal/mol

## CN(C)c1ccccc1
In CCCCCCCCCCCCCCCC
  solvation free energy, 298 K: -6.4 kcal/mol
In O
  solvation free energy, 298 K: -3.45 kcal/mol

## O=C1C=CC(=O)C=C1
In O
  solvation free energy, 298 K: -6.5 kcal/mol

## CN
In CCCCCC
  solvation free energy, 298 K: -1.64 kcal/mol
In CCCCO
  solvation free energy, 298 K: -2.89 kcal/mol
In CN(C)C=O
  solvation free energy, 298 K: -2.66 kcal/mol
In ClC(Cl)(Cl)Cl
  solvation free energy, 298 K: -2.33 kcal/mol
In ClC(Cl)Cl
  solvation free energy, 298 K: -3.16 kcal/mol
In O
  solvation free energy, 298 K: -4.56 kcal/mol

## Cc1ccc(C)c(C)c1
In O
  solvation free energy, 298 K: -0.83 kcal/mol

## CCCCC(=O)CCCC
In O
  solvation free energy, 298 K: -2.64 kcal/mol

## OCC(F)(F)F
In C1COCCO1
  solvation free energy, 298 K: -5.63 kcal/mol
In CC(=O)N(C)C
  solvation free energy, 298 K: -6.81 kcal/mol
In CN(C)C=O
  solvation free energy, 298 K: -6.93 kcal/mol
In O
  solvation free energy, 298 K: -4.31 kcal/mol

## Clc1ccc(-c2cc(Cl)c(Cl)cc2Cl)cc1Cl
In O
  solvation free energy, 298 K: -3.36 kcal/mol

## CCC(=O)CC
[2]
  solvation free energy, 298 K: -3.73 kcal/mol
In CCCCCCC
  solvation free energy, 298 K: -4.04 kcal/mol
[1]
  solvation free energy, 298 K: -4.31 kcal/mol
In CCCCCCCCCCCCCCCC
  solvation free energy, 298 K: -3.73 kcal/mol
In CCCCCCCCO
  solvation free energy, 298 K: -4.34 kcal/mol
In CN1CCCC1=O
  solvation free energy, 298 K: -4.76 kcal/mol
In CO
  solvation free energy, 298 K: -4.96 kcal/mol
In O
  solvation free energy, 298 K: -3.33 kcal/mol
In O=CN1CCOCC1
  solvation free energy, 298 K: -4.45 kcal/mol
In [2H]O[2H]
  solvation free energy, 298 K: -3.27 kcal/mol

## COC(=O)CC#N
In O
  solvation free energy, 298 K: -6.72 kcal/mol

## Cc1ccc(C2(C)CCCC2(C)C)cc1 (configuration not stated)
In O
  solvation free energy, 298 K: -0.61 kcal/mol
